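Following 48 hours of exposure in 96-well plates, responses at five concentrations were used to interpolate endpoints linearly. GI50 marks 50% less growth.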 Activity calls are given as the source filed them. Cut-off read from the data, not from the text of the source: active = GI50 up to about 1.1 µM and inactive = higher.
Tests used:
Experiment in all cases: DTP human tumour cell line panel, 48 h
A498 = test system: A498
SF-268 = test system: SF-268
DU-145 = test system: DU-145
SR = test system: SR
UO-31 = test system: UO-31
T47D = test system: T47D
SNB-19 = test system: SNB-19
HCT-15 = test system: HCT-15
NCI-H460 = test system: NCI-H460
MCF7 = test system: MCF7
HL-60 = test system: HL-60
KM12 = test system: KM12
NCI/ADR-RES = test system: NCI/ADR-RES
SNB-75 = test system: SNB-75
UACC-62 = test system: UACC-62
OVCAR-4 = test system: OVCAR-4
LOX IMVI = test system: LOX IMVI

SMILES	GI50 (A498)	GI50 (SF-268)	GI50 (DU-145)	GI50 (SR)	GI50 (UO-31)	GI50 (T47D)	GI50 (SNB-19)	GI50 (HCT-15)	GI50 (NCI-H460)	GI50 (MCF7)	GI50 (HL-60)	GI50 (KM12)	GI50 (NCI/ADR-RES)	GI50 (SNB-75)	GI50 (UACC-62)	GI50 (OVCAR-4)	GI50 (LOX IMVI)
Cc1cc(C)c(N[S+]([O-])c2cccc([N+](=O)[O-])c2)c(C)c1 (stereo not given)	> 100 µM (inactive)	> 100 µM (inactive)	> 100 µM (inactive)	> 100 µM (inactive)	> 100 µM (inactive)	> 100 µM (inactive)	> 100 µM (inactive)	> 100 µM	> 100 µM (inactive)	> 100 µM (inactive)	> 100 µM (inactive)	> 100 µM (inactive)	> 100 µM (inactive)				
Cc1cc2ccccc2n1CC(=O)N1CCCC1		> 100 µM (inactive)	> 100 µM (inactive)	> 100 µM (inactive)	> 100 µM (inactive)	> 100 µM (inactive)	> 100 µM (inactive)	> 100 µM	> 100 µM (inactive)	> 100 µM (inactive)	> 100 µM (inactive)	> 100 µM (inactive)	> 100 µM (inactive)	> 100 µM (inactive)	> 100 µM (inactive)	> 100 µM (inactive)	> 100 µM (inactive)
CCN(CCN(CC)C(=O)NC)C(=O)NC	> 100 µM (inactive)	> 100 µM (inactive)	> 100 µM (inactive)	> 100 µM (inactive)	> 100 µM (inactive)	> 100 µM (inactive)	> 100 µM (inactive)	> 100 µM	> 100 µM (inactive)	> 100 µM (inactive)	> 100 µM (inactive)		> 100 µM (inactive)	> 100 µM (inactive)	> 100 µM (inactive)		> 100 µM (inactive)
O=C(O)c1ccc(S(=O)(=O)c2ccccc2[N+](=O)[O-])cc1	> 10 µM (inactive)	> 10 µM (inactive)	> 10 µM (inactive)	> 10 µM (inactive)		> 10 µM (inactive)	> 10 µM (inactive)	> 10 µM	> 10 µM (inactive)	> 10 µM (inactive)	> 10 µM (inactive)	> 10 µM (inactive)	> 10 µM (inactive)	> 10 µM (inactive)	> 10 µM (inactive)	> 10 µM (inactive)	> 10 µM (inactive)
COc1ccc2c(c1)CCC(CN1CCN(CCOC(c3ccc(F)cc3)c3ccc(F)cc3)CC1)=C2	8.36 µM (inactive)	31.6 µM (inactive)	19 µM (inactive)	3.71 µM (inactive)		8.45 µM (inactive)	42.5 µM (inactive)	3.53 µM	12.4 µM (inactive)	13.6 µM (inactive)	5.53 µM (inactive)	15.1 µM (inactive)	11.8 µM (inactive)	46.5 µM (inactive)	16.1 µM (inactive)	24.8 µM (inactive)	15.6 µM (inactive)
O=C1c2sc(-c3ccc(Cl)cc3)cc2-n2cccc21	> 100 µM (inactive)	> 100 µM (inactive)	> 100 µM (inactive)	> 100 µM (inactive)	> 100 µM (inactive)	> 100 µM (inactive)	> 100 µM (inactive)	> 100 µM	> 100 µM (inactive)	> 100 µM (inactive)		> 100 µM (inactive)	> 100 µM (inactive)	> 100 µM (inactive)	> 100 µM (inactive)	> 100 µM (inactive)	> 100 µM (inactive)
C=C(C)C1Cc2c(cc3c(c2O)c(=O)c2ccccc2n3C)O1 (stereo not given)	10.1 µM (inactive)	2.48 µM (inactive)	> 10 µM (inactive)	1.16 µM (inactive)	1.84 µM (inactive)	6.67 µM (inactive)	2.61 µM (inactive)	2.75 µM	3.1 µM (inactive)	2.94 µM (inactive)	2.77 µM (inactive)	1.95 µM (inactive)	2.3 µM (inactive)	4.5 µM (inactive)	2.34 µM (inactive)	6.81 µM (inactive)	
CCCCCCCCCC[C@@H](O)[C@H]1CC[C@@H]([C@H]2CC[C@H]([C@H](O)CCCCCCCCCC[C@@H]3CC(CC(C)=O)C(=O)O3)O2)O1 (stereo not given in full)	38 µM (inactive)	2.1 µM (inactive)	9.27 µM (inactive)	0.59 µM (active)	2.49 µM (inactive)	1.7 µM (inactive)	2.9 µM (inactive)	5.12 µM	0.147 µM (active)	1.31 µM (inactive)		2.52 µM (inactive)	0.167 µM (active)	1.42 µM (inactive)	3.92 µM (inactive)	18.9 µM (inactive)	1.23 µM (inactive)
Cc1cc(O)nc2c3c(ccc12)OC(C)(C)C=C3	10.2 µM (inactive)	6.7 µM (inactive)	3.58 µM (inactive)	2.44 µM (inactive)	8.18 µM (inactive)	> 23.3 µM (inactive)	4.55 µM (inactive)	4.85 µM	3.95 µM (inactive)	3.48 µM (inactive)	0.43 µM (active)	4.28 µM (inactive)	3.99 µM (inactive)	5 µM (inactive)	5.01 µM (inactive)	18.6 µM (inactive)	
